In paper PMC6669608, “Evaluation of Oxasqualenoids from the Red Alga Laurencia viridis against Acanthamoeba” (Marine Drugs, 2019):

Tests used:
[1] = test system: Acanthamoeba polyphaga trophozoites; assay: In vitro activity against trophozoites of clinical strain A. polyphaga; format: cell-based, Acanthamoeba polyphaga genotype T4 ATCC 30461; conditions: trophozoite stage
Procedure: (§1) Subsequently, DT was tested against two clinical isolates, A. griffini, genotype T3 obtained in a previous study and A. polyphaga genotype T4 ATCC 30461. Those strains were grown axenically in the same medium as A. castellanii Neff.
(§2) The in vitro activities of the different compounds of Laurencia were evaluated using a previously developed colorimetric assay based on the alamarBlue™ Cell Viability Reagent assay (Life Technologies, Barcelona, Spain). Briefly, 50 µL of 5 × 10⁴ trophozoites/mL were seeded onto a 96-well microtiter plate. After 15 min, the adherence of the cells to the plate bottom was confirmed by the use of the inverted microscope Leica DMIL (Leica, Wetzlar, Germany). Furthermore, 50 µL of serial dilutions of each compound was added to the 96-well microtiter plate. Finally, alamarBlue™ was placed into each well at 10% of the final volume and incubated at 26 °C with slight agitation. After 96 h, the fluorescence was measured with EnSpire Multimode Plate Reader (Perkin Elmer, Madrid, Spain) at a wavelength of 570/585 nm. The inhibitory concentration to inhibit the growth of 50% of the parasites (IC50) was calculated through nonlinear regression analysis with 95% confidence limits using the software Sigma Plot 12.0 (Systat Software Inc., London, UK). The experiments were performed three times each, allowing for standard deviation.

[2] = test system: A. castellanii Neff; assay: Analysis of mitochondrial membrane potential (JC-1); format: cell-based, Acanthamoeba castellanii Neff; conditions: IC90, 24 h
Procedure: Collapse of the electrochemical gradient across the mitochondrial membrane during apoptosis was detected with the JC-1 mitochondrial membrane potential detection kit (Cell Technology, Fremont, CA, USA). After being treated with IC90 of the test compound for 24 h, the cells were centrifuged (1000 rpm × 10 min) and resuspended in JC-1 buffer. Images were taken on an EVOS FL Cell Imaging System AMF4300 (Life Technologies, San Francisco, CA, USA) from Life Technologies (Madrid, Spain). The staining pattern allows the identification of two groups in a cellular population: live cells will show only red fluorescence; cells with low mitochondrial potential, (undergoing PCD) will show a higher level of green and red fluorescence.

[3] = test system: A. castellanii; assay: Measurement of ATP levels (CellTiter-Glo); format: cell-based, Acanthamoeba castellanii; conditions: IC90, 24 h
Procedure: The ATP level was measured using a Cell Titer-Glo® Luminescent Cell Viability Assay (Promega, Alcobendas, Madrid). This required adding a single reagent (CellTiter-Glo® Reagent, Promega, Alcobendas, Madrid), which relies on the properties of a proprietary thermostable luciferase, generating a stable proportional luminescent signal to the amount of ATP present, which is directly proportional to the number of cells present in culture. After incubation, treated amoebas were mixed with the kit reagent into a white-wall 96-well microtiter plate (Nunc; Thermo Fisher Scientific Inc., Waltham, MA, USA) following the manufacturer’s instructions for measurement of the luminescence on a PerkinElmer spectrophotometer. The effect of the drug on the ATP production was evaluated by incubating 10^5 cells/mL with the previously calculated IC90 of DT following the manufacturer´s recommendations. As a negative control, an A. castellanii culture incubated with PYG medium was used.

[4] = test system: A. castellanii Neff trophozoites; assay: Plasma membrane permeability (SYTOX Green); format: cell-based, Acanthamoeba castellanii Neff; conditions: IC90, 24 h
Procedure: The SYTOX Green assay was performed to detect alterations of the membrane permeability in treated cells. Briefly, 10^5 trophozoites were washed and incubated in saline solution with the SYTOX Green at a final concentration of 1 μM (Molecular Probes) for 15 min in the dark. Subsequently, DT solution was added (IC90).

[5] = test system: Acanthamoeba castellanii Neff trophozoites; assay: In vitro activity against Acanthamoeba trophozoites (alamarBlue colorimetric assay); format: cell-based, Acanthamoeba castellanii Neff (ATCC 30010); conditions: trophozoites, 96 h, 26 °C, read-out: IC50 against Acanthamoeba castellanii Neff
Procedure: The antiamoeboid activity of the compounds was evaluated against Acanthamoeba castellanii Neff (ATCC 30010) type strain from the American Type Culture Collection. This strain was axenically incubated in PYG medium (0.75% (w/v) proteose Peptone, 0.75% (w/v) Yeast extract, and 1.5% (w/v) Glucose) supplemented with 10 µg/mL gentamicin (Sigma-Aldrich, Madrid, Spain). As for the cytotoxicity assays, murine macrophages J774A.1 (ATCC TIB-67) were used, cultivated in DMEM medium (Dulbecco’s modified eagle medium, Gibco Life Technologies, California, USA) with 10% supplement of fetal bovine serum (FBS) and 10 µg/mL gentamicin at 37 °C in a 5% CO2 incubator.
as §2

[6] = test system: Acanthamoeba castellanii Neff trophozoites; assay: as above; format: cell-based, Acanthamoeba castellanii Neff (ATCC 30010); conditions: 42.5 µM (25 µg/mL)
[7] = test system: A. castellanii Neff; assay: Intracellular ROS production (CellROX Deep Red); format: cell-based, Acanthamoeba castellanii Neff; conditions: IC90, 24 h
Procedure: Generation of intracellular ROS was detected using the CellROX® Deep Red fluorescent probe (Invitrogen, Thermo Fisher Scientific Inc., Waltham, MA, USA). The cells were treated with IC90 of DT for 24 h and exposed to CellROX® Deep Red (5 μM, 30 min) at 26 °C in the dark.

[8] = test system: Acanthamoeba griffini trophozoites; assay: In vitro activity against trophozoites of clinical strain A. griffini; format: cell-based, genotype T3; conditions: trophozoite stage
Procedure: as §1, §2

[9] = test system: A. castellanii Neff; assay: Double-stain assay (Hoechst 33342/PI) for programmed cell death; format: cell-based, Acanthamoeba castellanii Neff; conditions: IC90, 24 h
Procedure: A double-stain apoptosis detection kit (Hoechst 33342/PI) (GenScript, Piscataway, NJ, USA) and an EVOS FL Cell Imaging System AMF4300 (Life Technologies, Carlsbad, CA, USA) were used. The experiment was carried out by following the manufacturer’s recommendations, and 10^5 cells/well were incubated in a 24-well plate for 24 h with the previously calculated IC90. The double-staining pattern allows the identification of three groups in a cellular population: live cells will show only a low level of fluorescence, cells undergoing programmed cell death (PCD) will show a higher level of blue fluorescence (as chromatin condenses), and dead cells will show low-blue and high-red fluorescence (as the propidium iodide stain enters the nucleus).

## C=C(CC[C@H](O)[C@@]1(C)CC[C@H](C(C)(C)O)O1)[C@H]1CC[C@H]2O[C@@H]([C@]3(C)CC[C@@H](Br)C(C)(C)O3)CC[C@]2(C)O1 [Compound 1, dehydrothyrsiferol]
[1]
  IC50: 73.4 ± 4.02 µM
[2]
  mitochondrial membrane potential (JC-1): mitochondrial membrane potential collapsed
[3]
  ATP level maintained after treatment: 19.52%
  decrease in the total ATP level in comparison to the negative control: 80.48%
[4]
  plasma membrane permeability (SYTOX Green): showed plasmatic membrane damage
[5]
  IC50: 12.8 ± 1.38 µM
[6]
  inhibitory effect on the growth of A. castellanii trophozoites (microscopy): many of the treated cells were dead
[7]
  reactive oxygen species (ROS) levels: increased levels of ROS
[8]
  IC50: 56.7 ± 2.09 µM
[9]
  chromatin condensation (Hoechst 33342/propidium iodide double stain): induce chromatin condensation
